The test system of assay [1] is TRP-2-specific CTLs in cervical lymph nodes. Kind of assay: Activation of cytotoxic T lymphocytes in cervical lymph nodes: TRP-2-specific CTL frequency by tetramer flow cytometry after tape stripping. In kind it is in vivo, C57BL/6 (B6) mice. The note with it: relative to 100 = total mononucleocytes in cervical lymph nodes; one week after application to tape-stripped auricles; TRP-2 10 mg per side, Compound A 20 μL of 100 μM per side.
Procedure: The corneal layer of the auricles of C57BL/6 (B6) mice was destroyed by repeatedly carrying out (ten times) a stripping operation using adhesive tape, following which an antigen peptide or EP1 agonist was applied as a test substance. Using a solution obtained by dissolving a melanoma-specific antigen peptide (available from Peptide Business Department, Accord K.K.; abbreviated below as TRP-2) as the antigen peptide in 70% ethanol, 10 mg of the antigen peptide was applied per side of an auricle. […] One week after application of the test substance, the cervical lymph nodes were removed. The TRP-2-specific CTL frequency, relative to an arbitrary value of 100 representing the total number of mononucleocytes in the cervical lymph nodes, was determined by flow cytometric analysis (FACScaliber; Becton, Dickinson and Company) with a tetramer (Medical & Biological Laboratories Co., Ltd.). Four experimental groups were established: (1) a group in which only tape stripping (abbreviated below as TS) was carried out, (2) a group in which TRP-2 was applied after TS, (3) a group in which Compound A was applied after TS, and (4) a group in which TRP-2 and Compound A were applied after TS.

The next assay deals with I-A^b. Kind of assay: Expression of cell-surface molecules in cultured Langerhans cells (flow cytometry): I-A^b. In kind it is cell-based, C57BL/6 mice. As to conditions: Compound A 1 μM, Langerhans cells cultured a half-day; control group 12.1. On the procedure:
(§1) Using the same procedure as in Example 2 above, the Langerhans cells of C57BL/6 (36) mice were isolated, following which Compound A (1 μM) was added as an EP1 agonist and the cells were cultured for a half-day in a culture medium (cRPMI1640 medium; Sigma-Aldrich Japan). The cultured cells were then stained using antibodies specific to the cell-surface molecules I-A^b, B7-1 (CD80), B7-2 (CD86), CD40 and ICAM-1 (CD54), and changes in the expression of these molecules were analyzed by flow cytometry. An experimental group treated in the same way, excluding the addition of Compound A, was established as a control.

The test system of the next assay is B7-1 (CD80). Kind of assay: Expression of cell-surface molecules in cultured Langerhans cells (flow cytometry): B7-1. The assay is classed as cell-based, C57BL/6 mice. The note with it: Compound A 1 μM, Langerhans cells cultured a half-day; control group 5.9. On the procedure:
as §1

The next assay has as its system B7-2 (CD86). The experiment in a line: Expression of cell-surface molecules in cultured Langerhans cells (flow cytometry): B7-2. As to conditions: Compound A 1 μM, Langerhans cells cultured a half-day; control group 65.5. In kind it is cell-based, C57BL/6 mice. On the procedure:
as §1

A further assay concerns CD40. The experiment in a line: Expression of cell-surface molecules in cultured Langerhans cells (flow cytometry): CD40. In kind it is cell-based, C57BL/6 mice. As to conditions: Compound A 1 μM, Langerhans cells cultured a half-day; control group 28.7. On the procedure: as §1
A further assay has as its system ICAM-1 (CD54). The experiment in a line: Expression of cell-surface molecules in cultured Langerhans cells (flow cytometry): ICAM-1. In kind it is cell-based, C57BL/6 mice. As to conditions: Compound A 1 μM, Langerhans cells cultured a half-day; control group 36.5. As to the method: as §1
A further assay has as its system B16 melanoma cells. Kind of assay: Life-prolonging effects in melanoma-inoculated mice. The assay is classed as in vivo, B6 mice. The note with it: 8 animals per group. On the procedure: B16 melanoma cells (2×10^5) were transplanted into B6 mice in the same way as in Example 4. On day 5 after transplantation, the respective test substances (TRP-2 (10 μg per side of an auricle), Compound A (20 μL of a 100 μM solution per side of an auricle)) were administered to the right auricles in B6 mice by the same method as in Example 2. The same treatment was carried out ten days later on the left auricle, following which the survival of the mice in each experimental group was examined. The following groups were established as experimental groups (each group being composed of 8 animals): (1) a group in which only TS was carried out, (2) a group in which compound A was applied after TS, and (3) a group in which TRP-2 and Compound A were applied after TS.

The next assay has as its system NK1.1+ cells. The experiment in a line: Activation of NK1.1+ cells in cervical lymph nodes. In kind it is in vivo, B6 mice. The note with it: relative to 100 = total mononucleocytes in cervical lymph nodes; two weeks after application of 20 μL of 100 μM per side after TS; TS-only group 2.7. On the procedure:
As in Example 1, the corneal layer of the auricles of B6 mice was destroyed by repeatedly stripping ten times using adhesive tape, following which an EP1 agonist (Compound A: 20 μL of a 100 μM solution per side of an auricle) was applied as the test substance. Two weeks after application of the test substance, the cervical lymph nodes were removed. The frequency of NK1.1+ cells, relative to an arbitrary value of 100 representing the total number of mononucleocytes in the cervical lymph nodes, was determined by flow cytometric analysis. The following groups were established as experimental groups: (1) a group in which only TS was carried out, and (2) a group in which Compound A was applied after TS.

The next assay deals with splenic lymphocytes. Kind of assay: Splenic lymphocyte proliferative ability test (WST-1). In kind it is in vivo, B6 mice. The note with it: cell proliferation ratio; splenic lymphocytes recovered one week after application after TS, cultured 3 days with IL-2 (10 U/mL); TS-only group 4.2. As to the method:
As in Example 6, TS was carried out, after which Compound A (20 μL of a 100 μM solution per side of an auricle) was applied as the substance. One week after application of the test substance, splenic lymphocytes were recovered, then cultured at 37° C. for 3 days in a culture medium (cRPMI1640 medium: Sigma-Aldrich Japan) containing IL-2 (10 U/mL). Cell proliferative ability tests were carried out using WST-1 (Takara Bio Inc.) as the cell proliferation reagent (absorbance at 450 nm). Experimental groups similar to those in Example 6 were established (with each group containing three animals).
The relative values of the absorption intensities in each experimental group, based on an arbitrary value of 1 for the absorbance at 450 nm when all of the WST-1 added had decomposed to formazan, indicate the percent uptake of WST-1; that is, the cell proliferation ratio.

The subject of assay [2] is EL4 cells not subjected to NP pulsing. Kind of assay: NP-specific CTL specific lysis of calcein-labeled EL4 cells, not NP pulsed. As to conditions: 3 hours. The assay is classed as in vivo, C57BL/6 (B6) mice.
For the next assay, the system named is NP-pulsed EL4 cells. Kind of assay: NP-specific CTL specific lysis of calcein-labeled EL4 cells, NP pulsed. The note with it: NP-pulsed EL4 cells (10 μg/mL NP), 3 hours. The assay is classed as in vivo, C57BL/6 (B6) mice.
The test system of assay [3] is isolated epidermal Langerhans cells. The experiment in a line: Activation of cytotoxic T lymphocytes in isolated Langerhans cells co-cultured with lymphocytes. The assay is classed as cell-based, C57BL/6 (B6) mouse. The note with it: relative to 100 = total mononucleocytes in culture medium; TRP-2 10 μg/mL, Compound A 1 μM; 7 days co-culture. On the procedure:
An epidermal cell suspension was prepared by trypsinizing an auricle epidermal sheet removed over a given surface area from the corneal layer on one of the auricles in C57BL/6 (B6) mouse. The resulting epidermal cell suspension was subjected to panning using an antibody specific for I-A^b antigen in order to isolate epidermal Langerhans cells. Each test substance (TRP-2 (concentration, 10 μg/mL) and Compound A (1 μM)) was added to the isolated Langerhans cells (cell density, 10^5 cells/mL), following which the cells were cultured in a culture medium (cRPMI1640 medium; Sigma-Aldrich Japan). After a half-day, the cells were then co-cultured for 7 days with spleen cell lymphocytes isolated from the cervical lymph nodes of B6 mice. The frequency of TRP-2-specific CTLs, relative to an arbitrary value of 100 representing the total number of mononucleocytes in the culture medium, was subsequently determined by flow cytometric analysis (FACScaliber; Becton, Dickinson and Company) with a tetramer (Medical & Biological Laboratories Co., Ltd.). The following groups were established as experimental groups: (1) an untreated group, (2) a group in which TRP-2 was added, and (3) a group in which TRP-2 and Compound A were both added.

The values that follow come from patent publication US20110038884A1, “IMMUNOPOTENTIATING AGENT COMPRISING EP1 AGONIST” (NATIONAL UNIVERSITY CO., HAMAMATSU UNIVER. SCHOOL OF …, priority 2008, published 2011).

As for `CCCC[C@H](C)C[C@H](O)/C=C/[C@H]1[C@H](O)CC(=O)[C@@H]1CC(=O)C1CCC(C(=O)O)CC1` (stereo partly drawn) [Compound A, (13E)-(11α,15S,17S)-2,5-Ethano-6,9-dioxo-11,15-dihydroxy-17,20-dimethylprosta-13-enoic acid], the “Ratio of TRP-2-specific CTLs” value in assay [1] is reported as 0.53. The “Expression of each cell-surface molecule (%): I-A^b” value in the assay on I-A^b is given as 28.3%. Moreover, in the assay on B7-1 (CD80), the “Expression of each cell-surface molecule (%): B7-1” value was 8.8%. Besides, the “Expression of each cell-surface molecule (%): B7-2” value in the assay with B7-2 (CD86) is reported as 65.2%. In addition, the “Expression of each cell-surface molecule (%): CD40” value in the assay with CD40 came out at 30.8%. Moreover, the “Expression of each cell-surface molecule (%): ICAM-1” value in the assay with ICAM-1 (CD54) was 46.3%. Moreover, the Number of survivors with B16 melanoma cells (day 14 after inoculation of B16 melanoma cells), in the assay on B16 melanoma cells (day 16 after inoculation of B16 melanoma cells), in the assay with B16 melanoma cells (day 24 after inoculation of B16 melanoma cells), in the assay on B16 melanoma cells (day 25 after inoculation of B16 melanoma cells), in the assay with B16 melanoma cells (day 28 after inoculation of B16 melanoma cells) and in the assay with B16 melanoma cells (day 30 after inoculation of B16 melanoma cells) was 8 throughout. The Number of survivors in the assay with B16 melanoma cells (day 32 after inoculation of B16 melanoma cells) amounted to 8; in the assay with B16 melanoma cells (day 34 after inoculation of B16 melanoma cells), 8; with B16 melanoma cells (day 36 after inoculation of B16 melanoma cells) it was 4; in the assay with B16 melanoma cells (day 38 after inoculation of B16 melanoma cells), 0; in the assay with B16 melanoma cells (day 41 after inoculation of B16 melanoma cells), 0; with B16 melanoma cells (day 44 after inoculation of B16 melanoma cells), 0. The Number of survivors in the assay on B16 melanoma cells (day 46 after inoculation of B16 melanoma cells), with B16 melanoma cells (day 50 after inoculation of B16 melanoma cells), with B16 melanoma cells (day 52 after inoculation of B16 melanoma cells), in the assay on B16 melanoma cells (day 55 after inoculation of B16 melanoma cells) and in the assay with B16 melanoma cells (day 56 after inoculation of B16 melanoma cells) was 0 in each case. Besides, the “Ratio of NK1.1+ cells” value in the assay on NK1.1+ cells was 3.6. For the same molecule, the “Uptake of WST-1 (%)” value with splenic lymphocytes turned out to be 27.3%.

For “NP: influenza virus-specific antigen peptide, nucleoprotein (NP) 366-374, Ala Ser Asn Glu Asn Met Glu Thr Met (ASNENMETM; UniProt P03466 366-374, looked up, fragment)”, the Specific lysis in assay [2] is listed as 1.2%; with NP-pulsed EL4 cells, 11.9%.

Consider “TRP-2: melanoma-specific antigen peptide, tyrosinase-related protein 2 181-188, Val Tyr Asp Phe Phe Val Trp Leu (VYDFFVWL; Tyrosinase-related protein 2 residues 181-188) [reference compound]”, for which the “Ratio of TRP-2-specific CTLs” value in assay [1] is on record as 0.44; in assay [3], 3.2.
